Read-outs that look alike come from different tables or passages of the source.
How the values were obtained:
[1] = target: IDH1-R132H recombinant protein (Homo sapiens (Human), UniProt O75874, R132H); assay: IDH1-R132H enzymatic assay (inhibition of NADPH consumption, diaphorase/resazurin readout); assay type: biochemical; details: read-out: Enzyme IDH1 R132H IC50 (Range)
Outline: (§1)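 Compound was preincubated 15 min at 25 °C with 30 nM IDH1-R132H or 10 nM IDH1-R132C in Tris pH 7.5 buffer with MgCl2, BSA and Triton X-100. Reaction with 2 mM α-ketoglutarate and 20 μM NADPH (solution concentrations) ran 45 min at 25 °C. Remaining NADPH was detected via diaphorase/resazurin fluorescence (ex 535/em 590 nm), and IC50 came from four-parameter fits.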

[2] = target: IDH1-R132C recombinant protein (Homo sapiens (Human), UniProt O75874, R132C); assay: IDH1-R132C enzymatic assay (inhibition of NADPH consumption, diaphorase/resazurin readout); assay type: biochemical; details: read-out: Enzyme IDH1 R132C IC50 (Range)
Sequence of IDH1-R132C recombinant protein (O75874 whole entry R132C): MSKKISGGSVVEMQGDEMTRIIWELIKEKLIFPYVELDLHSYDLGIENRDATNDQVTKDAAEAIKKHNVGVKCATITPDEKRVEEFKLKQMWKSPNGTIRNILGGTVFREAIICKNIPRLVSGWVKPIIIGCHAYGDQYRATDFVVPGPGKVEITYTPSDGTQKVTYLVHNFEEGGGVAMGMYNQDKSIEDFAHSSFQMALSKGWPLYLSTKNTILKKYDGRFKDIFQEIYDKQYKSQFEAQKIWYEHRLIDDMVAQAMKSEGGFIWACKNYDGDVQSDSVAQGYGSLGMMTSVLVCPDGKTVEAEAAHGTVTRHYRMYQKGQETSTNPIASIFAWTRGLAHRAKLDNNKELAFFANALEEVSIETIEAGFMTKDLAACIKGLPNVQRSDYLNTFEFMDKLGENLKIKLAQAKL
Outline: as §1

[3] = test system: HCT116 isogenic IDH1-R132H mutant cells; assay: Cellular 2-HG assay using HCT116 mutant IDH1 cells (R132H), RapidFire mass spectrometry; assay type: cell-based; details: Homo sapiens, read-out: HCT116 IDH1 R132H IC50 (Range)
Procedure: (§2) Example 106—Cellular 2-HG assay using HCT116 mutant IDH1 cells
(§3) HCT116 isogenic IDH1-R132H and IDH1-R132C mutant cells were cultured in growth media (McCoy's 5 A, 10% fetal bovine serum, 1× antibiotic-antimycotic solution and 0.3 mg/mL G418) in 5% CO2 in an incubator at 37° C. To prepare the assay, cells were trypsinized and resuspended in assay media (McCoy's 5 A with no L-glutamine, 10% fetal bovine serum, 1× antibiotic-antimycotic solution and 0.3 mg/mL G418). An aliquot of 10,000 cells/100 μL was transferred to each well of a clear 96-well tissue culture plate. The cells were incubated in 5% CO2 at 37° C. in an incubator overnight to allow for proper cell attachment. An aliquot of 50 μL of compound containing assay media were then added to each well and the assay plate was kept in 5% CO2 at 37° C. in an incubator for 24 hours. The media was then removed from each well and 150 μL of a methanol/water mixture (80/20 v/v) was added to each well. The plates were kept at −80° C. freezer overnight to allow for complete cell lysis. An aliquot of 125 μL of extracted supernatant was analyzed by RapidFire high-throughout-mass spectrometry (Agilent) to determine the cellular 2-HG level. The IC50 of a given compound was calculated by fitting the dose response curve of cellular 2-HG inhibition at a given concentration with the four parameter logistic equation.

[4] = test system: HCT116 isogenic IDH1-R132C mutant cells; assay: Cellular 2-HG assay using HCT116 mutant IDH1 cells (R132C), RapidFire mass spectrometry; assay type: cell-based; details: Homo sapiens, read-out: HCT116 IDH1 R132C IC50 (Range)
Procedure: as §2, §3

[5] = HCT-116, cellular 2-HG level, HCT116 IDH1-R132H cells, 24 hours
[6] = HCT-116, cellular 2-HG level, HCT116 IDH1-R132C cells, 24 hours

Sequence of IDH1-R132H recombinant protein (O75874 whole entry R132H): as the sequence (O75874 whole entry R132C) above, with C132H counted along it

| Structure (SMILES) | IC50 [1] [µM] | IC50 [2] [µM] | IC50 [3, 5] [µM] | IC50 [4, 6] [µM] | IC50 ([3]; HCT-116, 24 h) [µM] | IC50 ([4]; HCT-116, 24 h) [µM] |
| --- | --- | --- | --- | --- | --- | --- |
| C[C@H](Nc1nccc(-c2ccccc2)n1)c1cc2cc(Cl)ccc2[nH]c1=O [Compound I-101] | < 0.1 | 0.1 to 1 | 0.1 to 1 | 0.1 to 1 |  |  |
| C[C@H](Nc1nccc([S@@+](C)[O-])n1)c1cc2cc(Cl)ccc2[nH]c1=O [Compound I-112] | 0.1 to 1 | 1 to 10 | 0.1 to 1 | 1 to 10 |  |  |
| C[C@H](Nc1nccc([S@+](C)[O-])n1)c1cc2cc(Cl)ccc2[nH]c1=O [Compound I-113] | < 0.1 | 0.1 to 1 | < 0.1 | 0.1 to 1 |  |  |
| C[C@H](Nc1nccc(C(N)=O)n1)c1cc2cc(Cl)ccc2[nH]c1=O [Compound I-114, (S)-2-((1-(6-chloro-2-oxo-1,2-dihydroquinolin-3-yl)ethyl)amino)pyrimidine-4-carboxamide] | < 0.1 | 0.1 to 1 | 0.1 to 1 | 0.1 to 1 |  |  |
| CNC(=O)c1ccnc(N[C@@H](C)c2cc3cc(Cl)ccc3[nH]c2=O)n1 [Compound I-115] | 0.1 to 1 | 0.1 to 1 | 0.1 to 1 | 0.1 to 1 |  |  |
| CC(C)CNC(=O)c1ccnc(N[C@@H](C)c2cc3cc(Cl)ccc3[nH]c2=O)n1 [Compound I-116] | 0.1 to 1 | 0.1 to 1 | 0.1 to 1 | 1 to 10 |  |  |
| C[C@H](Nc1nccc(N2CCNC2=O)n1)c1cc2cc(Cl)ccc2[nH]c1=O [Compound I-123, (S)-6-Chloro-3-(1-((4-(2-oxoimidazolidin-1-yl)pyrimidin-2-yl)amino)ethyl)quinolin-2(1H)-one] | < 0.1 | 0.1 to 1 | 0.1 to 1 | 0.1 to 1 |  |  |
| COC(=O)c1ccnc(N[C@@H](C)c2cc3cc(Cl)ccc3[nH]c2=O)n1 [Compound I-129] | 0.1 to 1 | 1 to 10 | 1 to 10 | 1 to 10 |  |  |
| COc1nc(NC(C)c2cc3cc(Cl)c(F)cc3[nH]c2=O)ncc1C#N (stereo not drawn) [Compound I-142] | < 0.1 | 0.1 to 1 |  |  | < 0.1 | 0.1 to 1 |
| COc1cc2[nH]c(=O)c([C@H](C)Nc3ncc(C#N)c(OC)n3)cc2cc1Cl [Compound I-143, (S)-2-((1-(6-Chloro-7-methoxy-2-oxo-1,2-dihydroquinolin-3-yl)ethyl)amino)-4-methoxypyrimidine-5-carbonitrile] | < 0.1 | < 0.1 |  |  | < 0.1 | < 0.1 |
| COc1cc2[nH]c(=O)c(C(C)Nc3ncc(C#N)c(OC)n3)cc2cc1Cl (stereo not drawn) [Compound I-145] | < 0.1 | < 0.1 |  |  | < 0.1 | 0.1 to 1 |
| COc1cc2[nH]c(=O)c(C(C)Nc3nccc(N4CCOC4=O)n3)cc2cc1Cl (stereo not drawn) [Compound I-146] | < 0.1 | 0.1 to 1 | < 0.1 | 0.1 to 1 |  |  |
| CC(=O)Nc1ccnc(NC(C)c2cc3cc(Cl)c(OCc4ccccn4)cc3[nH]c2=O)n1 (stereo not drawn) [Compound I-149] | < 0.1 | < 0.1 | < 0.1 | < 0.1 |  |  |
| COc1nc(N[C@@H](C)c2cc3cc(Cl)c(OCc4ccccn4)cc3[nH]c2=O)ncc1C#N [Compound I-151, (S)-2-((1-(6-Chloro-2-oxo-7-(pyridin-2-ylmethoxy)-1,2-dihydroquinolin-3-yl)ethyl)amino)-4-methoxypyrimidine-5-carbonitrile] | < 0.1 | < 0.1 | < 0.1 | < 0.1 |  |  |
| C[C@H](Nc1ncc(C#N)c(O)n1)c1cc2cc(Cl)c(OCc3ccccn3)cc2[nH]c1=O [Compound I-152, (S)-2-((1-(6-chloro-2-oxo-7-(pyridin-2-ylmethoxy)-1,2-dihydroquinolin-3-yl)ethyl)amino)-4-hydroxypyrimidine-5-carbonitrile] | < 0.1 | 1 to 10 | 0.1 to 1 | 1 to 10 |  |  |
| COC(=O)Nc1ccnc(N[C@@H](C)c2cc3cc(Cl)c(OCc4ccccn4)cc3[nH]c2=O)n1 [Compound I-154, (S)-methyl (2-((1-(6-Chloro-2-oxo-7-(pyridin-2-ylmethoxy)-1,2-dihydroquinolin-3-yl)ethyl)amino)pyrimidin-4-yl)carbamate] | < 0.1 | < 0.1 | < 0.1 | < 0.1 |  |  |
| COc1nc(N[C@@H](C)c2cc3cc(Cl)cnc3[nH]c2=O)ncc1C#N [Compound I-155, (S)-2-((1-(6-chloro-2-oxo-1,2-dihydro-1,8-naphthyridin-3-yl)ethyl)amino)-4-methoxy pyrimidine-5-carbonitrile] | < 0.1 | 1 to 10 | 0.1 to 1 | 1 to 10 |  |  |
| COc1nc(N[C@H](C)c2nc3cc(Cl)ccc3[nH]c2=O)ncc1C#N [Compound I-157] | 0.1 to 1 | 1 to 10 |  |  | < 0.1 | 0.1 to 1 |
| COc1nc(N[C@@H](C)c2cc3cc(Cl)c(O[C@H](C)c4ccccn4)cc3[nH]c2=O)ncc1C#N [Compound I-158, 2-(((S)-1-(6-chloro-2-oxo-7-((R)-1-(pyridin-2-yl)ethoxy)-1,2-dihydroquinolin-3-yl)ethyl)amino)-4-methoxypyrimidine-5-carbonitrile] | < 0.1 | < 0.1 | < 0.1 | 0.1 to 1 |  |  |
| COc1nc(N[C@@H](C)c2cc3cc(Cl)c(OCC4CC4)cc3[nH]c2=O)ncc1C#N [Compound I-159, (S)-2-((1-(6-chloro-7-(Cyclopropylmethoxy)-2-oxo-1,2-dihydroquinolin-3-yl)ethyl)amino)-4-methoxypyrimidine-5-carbonitrile] | < 0.1 | < 0.1 | < 0.1 | < 0.1 |  |  |
| CC(=O)Nc1ccnc(N[C@@H](C)c2cc3cc(Cl)cc(F)c3[nH]c2=O)n1 [Compound I-160, (S)—N-(2-((1-(6-Chloro-8-fluoro-2-oxo-1,2-dihydroquinolin-3-yl)ethyl)amino)pyrimidin-4-yl)acetamide] | < 0.1 | < 0.1 | < 0.1 | < 0.1 |  |  |
| COc1nc(N[C@@H](C)c2cc3cc(Cl)cc(F)c3[nH]c2=O)ncc1C#N [Compound I-161, (S)-2-((1-(6-Chloro-8-fluoro-2-oxo-1,2-dihydroquinolin-3-yl)ethyl)amino)-4-methoxy pyrimidine-5-carbonitrile] | < 0.1 | 0.1 to 1 | < 0.1 | 0.1 to 1 |  |  |
| COc1nc(N[C@@H](C)c2cc3cc(Cl)c(Br)cc3[nH]c2=O)ncc1C#N [Compound I-162, (S)-2-((1-(7-bromo-6-chloro-2-oxo-1,2-dihydroquinolin-3-yl)ethyl)amino)-4-methoxypyrimidine-5-carbonitrile] | < 0.1 | 0.1 to 1 | < 0.1 | 0.1 to 1 |  |  |
| CC(=O)Nc1ccnc(N[C@@H](C)c2cc3cc(Cl)c(F)cc3[nH]c2=O)n1 [Compound I-179, (S)—N-(2-((1-(6-chloro-7-fluoro-2-oxo-1,2-dihydroquinolin-3-yl)ethyl)amino)pyrimidin-4-yl)acetamide] | < 0.1 | < 0.1 | < 0.1 | < 0.1 |  |  |

Source: US10280150B2 (FORMA TM2, Inc., priority 2014, dated 2019)
